Reference: the OPERA property sets (Mansouri et al. 2018)

Conditions: not given
CCCCCCCCCCCCCCCCCCCCC gave a boiling point of 356 °C, a log10 biodegradation half-life (days) of 1.4 and a log10 vapour pressure (mmHg) of -4.06. For the same compound, the melting point was 40.5 °C and the ready biodegradability was “readily biodegradable”.
Brc1cscc1Br showed a boiling point of 222 °C and a melting point of 4.5 °C.
In the case of C[Si](C)(Cl)Cl, the boiling point was 70.3 °C and the log10 vapour pressure (mmHg) was 2.16.
In the case of FC(F)(Cl)CBr, the boiling point was 68.4 °C and the melting point was -76 °C.
In the case of CCCCC(=O)c1ccccc1, the boiling point was 245 °C and the melting point was -9.4 °C.
Work on CCCCCC[N+](=O)[O-] yielded a boiling point of 193 °C.
With CCNc1nc(O)nc(NCC)n1 the ready biodegradability was “not readily biodegradable”.
For CCN(CC)c1ccc(/N=N/c2ccccc2)cc1, the log10 vapour pressure (mmHg) was -7.07 and the melting point was 97.5 °C.
In the case of CC(C1CC1)C(O)(Cn1cncn1)c1ccc(Cl)cc1 (configuration not stated), the log10 vapour pressure (mmHg) was -6.59 and the melting point was 108 °C.
Work on NC1CCCCCCC1 yielded a boiling point of 190 °C and a melting point of -48 °C.
COc1ccc(C)c(C)c1 gave a boiling point of 202 °C.
In the case of FC(F)(F)S(F)(F)(F)(F)F, the boiling point was -20 °C and the melting point was -87 °C.
CC(C)=NNc1ccccc1 showed a melting point of 42 °C.
With CCc1cccc(C)c1N(C(=O)CCl)C(C)COC (configuration not stated) the log10 Henry constant (atm·m³/mol) was -8.05, the log10 Koc (L/kg) was 2.46 and the log10 vapour pressure (mmHg) was -4.5. The melting point was -51 °C.
Compound CS(=O)(=O)c1c(F)c(F)c(F)c(F)c1F has a log10 Koc (L/kg) of 1.46.
Work on CC(C)(C)C(=O)C1C(=O)c2ccccc2C1=O yielded a melting point of 109 °C.
Work on O=CC1CCC=CO1 (configuration not stated) yielded a boiling point of 146 °C.
O=[N+]([O-])c1c(O)ccc2ccccc12 gave a melting point of 104 °C.
With CC(=O)c1cccc(C#N)c1 the melting point was 99 °C.
CCN(CC)C(C)=O gave a boiling point of 186 °C and a log10 Koc (L/kg) of 1.84.
Work on C=CC(C)CCC (configuration not stated) yielded a boiling point of 83.9 °C and a log10 vapour pressure (mmHg) of 1.92.
Work on CCc1ccc(CC)c(CC)c1 yielded a boiling point of 218 °C.
O=[N+]([O-])c1ccc(F)cc1 gave a boiling point of 205 °C and a melting point of 21 °C.
Compound CCOC(=O)CCCl has a boiling point of 162 °C.
Compound CC[N+]1(CC)CCC(OC(=O)C(O)(c2ccccc2)c2ccccc2)C1.[Br-] (configuration not stated) has a melting point of 204 °C.
With Nc1ccc(-c2ccccc2)cc1 the boiling point was 302 °C and the melting point was 53.5 °C.
C=CC(=O)Cl showed a boiling point of 75.5 °C.
In the case of CC/C(=C\c1ccccc1)[N+](=O)[O-], the boiling point was 308 °C and the melting point was 90.5 °C.
For Clc1ccncc1, the boiling point was 148 °C and the melting point was -43.5 °C.
CCCCOC(=O)CC(O)(CC(=O)OCCCC)C(=O)OCCCC showed a melting point of -20 °C.
C1=CCCC=CCC1 gave a boiling point of 151 °C, a log10 vapour pressure (mmHg) of 0.695 and a melting point of -56.4 °C.
With C[C@@H]1C[C@H]2[C@@H]3C[C@H](F)C4=CC(=O)C=C[C@]4(C)[C@@]3(F)[C@@H](O)C[C@]2(C)[C@H]1C(=O)CO the melting point was 242 °C.
In the case of CN1C(=O)CC[C@H]1c1cccnc1, the melting point was 41 °C.
Compound C/C=C/CC(C)C has a boiling point of 88.1 °C and a melting point of -124 °C.
Work on Clc1ccc(C(Cl)(Cl)Cl)cc1Cl yielded a boiling point of 283 °C and a melting point of 25.8 °C.
Compound O=P(O)(c1ccccc1)c1ccccc1 has a melting point of 194 °C.
Nc1ccc([N+](=O)[O-])cn1 gave a melting point of 187 °C.
With CC(O)C(C)(C)CO (configuration not stated) the boiling point was 208 °C.
With O=C(O)/C=C/c1c[nH]cn1 the melting point was 225 °C.
Compound C[C@H]1CCC[C@H](C)C1=O has a boiling point of 175 °C.
For CCOC(=O)c1ccc(-c2ccc(C(=O)OCC)c(C(=O)OCC)c2)cc1C(=O)OCC, the ready biodegradability was “readily biodegradable”.
In the case of Cc1ccc(N(CCO)CCO)cc1, the boiling point was 339 °C.
With CC(C)c1cccc(O)c1 the boiling point was 228 °C, the log10 vapour pressure (mmHg) was -1.16 and the melting point was 26 °C.
C1CCC2CCCCC2C1 (configuration not stated) gave a boiling point of 180 °C, a log10 Koc (L/kg) of 3.67 and a log10 vapour pressure (mmHg) of 0.114. For the same compound, the melting point was -38.7 °C and the ready biodegradability was “not readily biodegradable”.
For Oc1ccc(F)c(F)c1F, the melting point was 32 °C.
Work on C=COCCCCCCCCCC yielded a melting point of -41 °C.
Cc1cc(N(C)C)ccc1N=Nc1ccccc1 gave a melting point of 68 °C.
CC(Cc1ccccc1)NC(C#N)c1ccccc1 (configuration not stated) showed a melting point of 86 °C.
With O=C(OOC(=O)c1ccccc1)c1ccccc1 the melting point was 105 °C and the ready biodegradability was “readily biodegradable”.
Compound O=C1C(=O)c2ccccc2C(Cl)=C1Cl has a melting point of 184 °C.
Compound Cc1ccc(Oc2ccc([N+](=O)[O-])cc2)cc1 has a melting point of 69 °C.
Work on S=C=Nc1cccc(Br)c1 yielded a boiling point of 256 °C.
Work on NC(=O)CN1CCCC1=O yielded a melting point of 152 °C.
CC(=O)Oc1ccccc1C(=O)Oc1ccccc1C(=O)O showed a melting point of 159 °C.
CC(=O)/C=C/C1C(C)=CCCC1(C)C (configuration not stated) showed a log10 vapour pressure (mmHg) of -1.76.
Compound CCCCCCCCCCCC(=O)OC has a boiling point of 267 °C, a log10 vapour pressure (mmHg) of -2.39 and a melting point of 5.2 °C. The ready biodegradability was “readily biodegradable”.
Compound Cl.NCCc1c[nH]c2ccccc12 has a melting point of 255 °C.
With Cc1cccc(C(=O)Cl)c1 the boiling point was 220 °C and the melting point was -23 °C.
For CC(=O)c1cc2ccccc2o1, the melting point was 76 °C.
Work on OCCCCl yielded a boiling point of 165 °C.
Work on CCCCCCCCCCCCOc1ccc(C(=O)O)cc1 yielded a melting point of 95 °C.
With CCCCC=O the boiling point was 103 °C, the log10 Henry constant (atm·m³/mol) was -3.83 and the log10 vapour pressure (mmHg) was 1.42. The melting point was -91.5 °C.
In the case of CCCCC(CC)CCC (configuration not stated), the boiling point was 164 °C.
For CC(=O)CC(C)(C)N, the boiling point was 180 °C and the log10 vapour pressure (mmHg) was -0.699.
With CCc1ccc2c(c1)C(=O)c1ccccc1C2=O the melting point was 110 °C and the ready biodegradability was “not readily biodegradable”.

Same assay, conditions: fish
c1ccc2c(c1)ccc1ccccc12 gave a log10 BCF of 3.4 and a log10 biotransformation half-life (days) of 0.7.
For Clc1ccccc1Cl, the log10 BCF was 2.43 and the log10 biotransformation half-life (days) was 0.5.
With Clc1cc2c(cc1Cl)Oc1cc(Cl)c(Cl)cc1O2 the log10 BCF was 4.99 and the log10 biotransformation half-life (days) was 1.78.
Compound COc1cc(Cl)c(Cl)c(Cl)c1Cl has a log10 BCF of 3.67.
Brc1cc(Br)c(Oc2c(Br)cc(Br)c(Br)c2Br)cc1Br showed a log10 biotransformation half-life (days) of 1.65.
Work on CC(C)c1ccc2c(c1)CC[C@H]1[C@](C)(C(=O)O)CCC[C@]21C yielded a log10 BCF of 2.12.
For C1CCC2CCCCC2C1 (configuration not stated), the log10 BCF was 3.25.
With CCc1ccc2c(c1)C(=O)c1ccccc1C2=O the log10 BCF was 0.98.
